Columns and labels:
hLPCAT1 = biological target: T1, hLPCAT1 (Homo sapiens, UniProt Q8NF37); test: lyso-PAFAT (acetyltransferase) activity assay, PAF product by LC-MS/MS; assay type: biochemical; conditions: for IC50: 0, 0.2, 0.6, 2, 6 and 20 μM of each compound in triplicate, LC-MS/MS, read-out: IC50, product PAF, enzyme hLPCAT1; for percentage inhibition, product PAF, hLPCAT1: 20 μM compound, microsomal fractions of nonstimulated CHO-S-PAFR cells, n = 3, mean ± SEM
T1 construct: expressed in transfected cells
T1 sequence (Q8NF37 1-534): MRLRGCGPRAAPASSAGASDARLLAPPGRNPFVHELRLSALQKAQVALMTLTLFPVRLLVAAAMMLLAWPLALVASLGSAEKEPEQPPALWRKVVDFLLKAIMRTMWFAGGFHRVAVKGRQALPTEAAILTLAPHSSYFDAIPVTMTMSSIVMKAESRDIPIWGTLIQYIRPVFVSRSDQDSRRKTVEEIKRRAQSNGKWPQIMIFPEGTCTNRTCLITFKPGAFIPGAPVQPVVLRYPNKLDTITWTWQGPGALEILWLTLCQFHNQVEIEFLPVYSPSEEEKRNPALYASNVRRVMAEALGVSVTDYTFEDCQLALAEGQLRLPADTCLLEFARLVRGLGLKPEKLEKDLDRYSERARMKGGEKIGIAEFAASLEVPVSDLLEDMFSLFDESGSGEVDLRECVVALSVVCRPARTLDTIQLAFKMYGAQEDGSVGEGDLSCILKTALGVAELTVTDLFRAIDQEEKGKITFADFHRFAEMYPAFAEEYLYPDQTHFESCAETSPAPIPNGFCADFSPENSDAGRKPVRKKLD
Experimental: (§1) Microsomal protein fractions (0.5 μg) supplemented with the indicated compound concentrations were added to the reaction mixture containing 100 mM Tris-HCl (pH 7.4), 1 μM CaCl2, 0.015% Tween-20, and two substrates. For acetyltransferase activity, the substrates were 1 mM acetyl-CoA and 5 μM d4-lyso-PAF; for the acyltransferase activity of LPCAT1 or LPCAT2, the substrates were, respectively, palmitoyl-CoA and d31-16:0 LPC or arachidonoyl-CoA and d4-lyso-PAF (all 5 μM). Each lysophospholipid contained fatty acid at the sn-1 position. After incubation at 37°C for 5 min, the reactions were stopped by adding 300 μl methanol containing 17:0 LPC or 14:0/14:0 PC as an internal standard. Deuterium-labeled products were analyzed by LC-MS/MS (Waters, Milford, MA and Thermo Scientific, Waltham, MA). […]
(§2) Steps 2 to 5 screening: 96-well plate assay
(§3) Acetyltransferase and acyltransferase assays were developed in 96-well plates. The microsomal hLPCAT2, obtained from mcPAF-stimulated CHO-S-PAFR cells was used in steps 1, 2, and 5. The microsomal hLPCAT1 obtained from unstimulated CHO-S cells was used in steps 3 to 5. Each well of the 96-well plates contained 30 µl of 15 µg/ml protein, 600 nl of 2 mM compound, 30 µl buffer C, and two substrates (Fig. 1B and C).
(§4) Substrate concentrations were as follows: acetyl-CoA, 250 or 1000 µM acetyl-CoA; […]
(§5) arachidonoyl-CoA, 5 µM; palmitoyl-CoA, 5 µM; d4-lyso-PAF, 5 µM; and d31-LPC, 5 µM.
(§6) For step 5, compound concentrations were 0, 0.167, 0.67, 2, 6.7, and 20 µM. The deuterium-labeled products were measured by LC-MS/MS. Percentage inhibition (steps 2 to 4) or IC50 (step 5) was used as the hit criterion. […]
(§7) Step 7 screening: species-specific differences
(§8) To evaluate the effects on the activity of mouse or human LPCAT1 and LPCAT2, each microsomal fraction was obtained using CHO-S-PAFR cells with or without mcPAF (200 nM) stimulation for 5 min. Acetyltransferase and acyltransferase assays were performed with 20 µM of each compound. Percentage inhibition was calculated in each

hLPCAT2 = biological target: T2, hLPCAT2 (Homo sapiens, UniProt Q7L5N7); test: acyltransferase activity assay, 16:0/20:4 alkyl-PC product by LC-MS/MS; assay type: biochemical; conditions: for IC50: 0, 0.2, 0.6, 2, 6 and 20 μM of each compound in triplicate, LC-MS/MS, read-out: IC50, product Alkyl-PC (16:0/20:4 alkyl-PC), enzyme hLPCAT2; for percentage inhibition, product 16:0/20:4 Alkyl-PC, hLPCAT2: 20 μM compound, microsomal fractions of nonstimulated CHO-S-PAFR cells, n = 3, mean ± SEM
T2 construct: expressed in transfected cells; host or cells: CHO-S-PAFR cells (microsomal fraction), with or without mcPAF stimulation
T2 sequence (Q7L5N7 1-544): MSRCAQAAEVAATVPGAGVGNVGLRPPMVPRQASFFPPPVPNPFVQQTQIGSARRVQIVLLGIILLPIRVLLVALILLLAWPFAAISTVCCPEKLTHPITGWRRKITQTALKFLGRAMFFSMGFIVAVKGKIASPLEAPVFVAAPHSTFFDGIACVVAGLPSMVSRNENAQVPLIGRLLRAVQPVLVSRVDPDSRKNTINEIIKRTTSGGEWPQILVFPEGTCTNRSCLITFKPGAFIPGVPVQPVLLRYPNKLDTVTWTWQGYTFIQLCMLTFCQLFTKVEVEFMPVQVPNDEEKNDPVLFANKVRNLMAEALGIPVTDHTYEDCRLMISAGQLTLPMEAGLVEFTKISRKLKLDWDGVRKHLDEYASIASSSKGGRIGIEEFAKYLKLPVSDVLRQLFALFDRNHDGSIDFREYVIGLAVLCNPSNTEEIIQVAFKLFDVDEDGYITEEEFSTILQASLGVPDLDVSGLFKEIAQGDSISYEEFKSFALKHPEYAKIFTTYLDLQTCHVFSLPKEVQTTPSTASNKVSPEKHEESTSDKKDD
Experimental: as §1, §2, §3, §4, §5, §6, §7, §8

[1] = cell viability assay (WST-8); assay type: cell-based; conditions: mouse, RAW264.7 cells (wild-type), 36 h treatment, data not shown, read-out: cytotoxicity IC50 (cell viability)
Experimental: Cell viability was measured using a modified MTT [3-(4,5-dimethylthiazol-2-yl)-2,5-diphenyltetrazolium bromide] dye reduction assay using WST-8 [2-(2-methoxy-4-nitrophenyl)-3-(4-nitrophenyl)-5-(2,4-disulfophenyl)-2H-tetrazolium, monosodium salt; Dojindo Molecular Technologies, Inc., Kumamoto, Japan] according to the manufacturer’s instructions. […] or RAW-mLPCAT2 cells were seeded in 96-well plates (1 × 10^4 cells/well) for 8 h and then treated with a compound for 36 h. WST-8 was added for another 2 h and the 450 nm absorbance was measured using a microplate reader (Bio-Rad). Cell viability was expressed as a percentage of vehicle-treated control values. To observe the effects of the incubation time on cell viability, 0.4 × 10^4 RAW-mLPCAT2 cells were treated with compounds for 1 or 6 h before the WST-8 assay.
Step 8 screening: cell viability assay
Wild-type RAW264.7 cells and RAW264.7 cells transfected with mLPCAT2 or control plasmid were used. Cells were cultured for 36 h with 0, 0.06, 0.2, 0.6, 2, 6, and 20 µM of compounds in 96-well plates and assayed for viability with WST-8. […]
The data were normalized to each positive control (100% activation). Percentage inhibition or IC50 were determined in each screening step. To assess screening quality, the percentage coefficient of variance and the Z’ factor was calculated for each plate or each assay as described previously (2).

| Structure (SMILES) | IC50 (hLPCAT1) [µM] | percentage inhibition, product PAF, hLPCAT1 (hLPCAT1) [percentage] | IC50 (hLPCAT2) [µM] | percentage inhibition, product 16:0/20:4 Alkyl-PC, hLPCAT2 (hLPCAT2) [percentage] | IC50 at 36 h [1] [µM] |
| --- | --- | --- | --- | --- | --- |
| CCCOC(=O)c1ccc(N2C(=O)C(Cl)=C(Cl)C2=O)cc1 [TSI-10] | 2.42 | 76.1 ± 4.4 | 0.3 | 85.4 ± 3.0 | > 20 |
| CC(C)OC(=O)c1ccc(N2C(=O)C(Cl)=C(Nc3ccccc3O)C2=O)cc1 [TSI-07] | > 20 | 11.9 ± 13.1 | 13.3 | 83.1 ± 4.3 | > 20 |
| CC(C)OC(=O)c1ccc(N2C(=O)C(Cl)=C(Cl)C2=O)cc1 [TSI-01, propan-2-yl 4-(3,4-dichloro-2,5-dioxopyrrol-1-yl)benzoate] | 3.02 | 75.9 ± 5.2 | 1.27 | 95.2 ± 1.3 | > 20 |
| O=C1C(Cl)=C(N2CCOCC2)C(=O)N1c1ccc(Oc2ccccc2)cc1 [TSI-02, 3-chloro-4-morpholin-4-yl-1-(4-phenoxyphenyl)pyrrole-2,5-dione] | 8 |  | 1.16 |  |  |
| CCCCOC(=O)c1ccc(N2C(=O)C(Cl)=C(Cl)C2=O)cc1 [TSI-11, butyl 4-(3,4-dichloro-2,5-dioxopyrrol-1-yl)benzoate] | 1.01 | 78.6 ± 2.8 | 0.33 | 80.4 ± 2.7 | > 20 |

Reference: paper PMC4076079, “Selective inhibitors of a PAF biosynthetic enzyme lysophosphatidylcholine acyltransferase 2” (Journal of Lipid Research, 2014)
